Source: ChEMBL document CHEMBL4152218, “Novel hydrazide-hydrazone and amide substituted coumarin derivatives: Synthesis, cytotoxicity screening, microarray, radiolabeling and in vivo pharmacokinetic studies” (Eur J Med Chem, 2018)
Activity calls are given as the source filed them. The calls are words filed in the database; no cut-off is given here.

Experiments:
PANC-1 [1] = experiment: Effect on NBPF20 gene expression in human PANC1 cells at IC50 after 48 hrs by microarray analysis; format: functional, cell-based
HepG2 [2] = experiment: Effect on GST A1 gene expression in human HepG2 cells at IC50 after 48 hrs by microarray analysis; format: functional, cell-based
HepG2 [3] = experiment: Effect on SRXN1 gene expression in human HepG2 cells at IC50 after 48 hrs by microarray analysis; format: functional, cell-based
HepG2 [4] = experiment: Effect on GDF15 gene expression in human HepG2 cells at IC50 after 48 hrs by microarray analysis; format: functional, cell-based
PANC-1 [5] = experiment: Effect on MATK gene expression in human PANC1 cells at IC50 after 48 hrs by microarray analysis; format: functional, cell-based
HepG2 [6] = experiment: Effect on GDF15 gene expression in human HepG2 cells at IC50 after 48 hrs by microarray analysis relative to control; format: functional
HepG2 [7] = experiment: Effect on DKK1 gene expression in human HepG2 cells at IC50 after 48 hrs by microarray analysis; format: functional, cell-based
PANC-1 [8] = experiment: Effect on ZNF43 gene expression in human PANC1 cells at IC50 after 48 hrs by microarray analysis; format: functional, cell-based
PANC-1 [9] = experiment: Effect on EIF5 gene expression in human PANC1 cells at IC50 after 48 hrs by microarray analysis; format: functional, cell-based
PANC-1 [10] = experiment: Effect on TDG gene expression in human PANC1 cells at IC50 after 48 hrs by microarray analysis; format: functional, cell-based
HepG2 [11] = experiment: Effect on AKR1B10 gene expression in human HepG2 cells at IC50 after 48 hrs by microarray analysis; format: functional, cell-based
Cytochrome P450 3A4 = Cytochrome P450 3A4 (Homo sapiens, UniProt P08684); experiment: Inhibition of human recombinant CYP3A4 using luciferin as substrate preincubated for 10 mins followed by substrate addition and measured after 50 mins in presence of NADPH by CYP450-Glo assay; format: ADME; conditions: recombinant enzyme
Cytochrome P450 3A4, sequence (P08684 whole entry): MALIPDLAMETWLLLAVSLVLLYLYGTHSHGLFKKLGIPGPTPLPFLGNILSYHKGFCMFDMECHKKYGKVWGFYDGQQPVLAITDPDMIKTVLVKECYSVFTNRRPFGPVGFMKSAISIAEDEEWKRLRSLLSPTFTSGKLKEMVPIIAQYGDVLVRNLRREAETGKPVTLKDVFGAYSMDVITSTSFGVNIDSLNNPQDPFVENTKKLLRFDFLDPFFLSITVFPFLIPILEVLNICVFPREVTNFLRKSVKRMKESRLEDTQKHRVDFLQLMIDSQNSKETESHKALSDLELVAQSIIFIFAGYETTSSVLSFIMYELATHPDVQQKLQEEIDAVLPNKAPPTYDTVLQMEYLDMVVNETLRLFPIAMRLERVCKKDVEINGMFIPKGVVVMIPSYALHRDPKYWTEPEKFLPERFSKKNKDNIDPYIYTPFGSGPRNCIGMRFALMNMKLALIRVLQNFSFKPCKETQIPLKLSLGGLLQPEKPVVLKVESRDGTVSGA

HepG2 [12] = experiment: Effect on CASP7 gene expression in human HepG2 cells at IC50 after 48 hrs by microarray analysis relative to control; format: functional
PANC-1 [13] = experiment: Effect on ELP2P gene expression in human PANC1 cells at IC50 after 48 hrs by microarray analysis; format: functional, cell-based
TERT-RPE1 [14] = experiment: Cytotoxicity against hTERT-RPE1 cells at 12.50 uM after 48 hrs by resazurin dye-based fluorescence assay relative to control; format: cell-based; conditions: human, tert-rpe1, 48 h, 12.5 µM
PANC-1 [15] = experiment: Effect on YY1 gene expression in human PANC1 cells at IC50 after 48 hrs by microarray analysis; format: functional, cell-based
PANC-1 [16] = experiment: Effect on LIMK1 gene expression in human PANC1 cells at IC50 after 48 hrs by microarray analysis; format: functional, cell-based
HepG2 [17] = experiment: Antiproliferative activity against human HepG2 cells after 48 hrs by resazurin dye-based fluorescence assay; format: functional, cell-based; conditions: HepG2, 48 h
PANC-1 [18] = experiment: Effect on CYP1A1 gene expression in human PANC1 cells at IC50 after 48 hrs by microarray analysis; format: ADME, cell-based; conditions: panc-1, 48 h
PANC-1 [19] = experiment: Effect on HSPE1 gene expression in human PANC1 cells at IC50 after 48 hrs by microarray analysis; format: functional, cell-based
HepG2 [20] = experiment: Effect on GADD45A gene expression in human HepG2 cells at IC50 by SYBR green-dye based qRT-PCR analysis relative to beta-actin; format: functional
PANC-1 [21] = experiment: Effect on HIST1H4C gene expression in human PANC1 cells at IC50 after 48 hrs by microarray analysis; format: functional, cell-based
HepG2 [22] = experiment: Effect on PYCR1 gene expression in human HepG2 cells at IC50 after 48 hrs by microarray analysis; format: functional, cell-based
PANC-1 [23] = experiment: Effect on GLULP2 gene expression in human PANC1 cells at IC50 after 48 hrs by microarray analysis; format: functional, cell-based
hTERT-BJ [24] = experiment: Cytotoxicity against hTERT-BJ cells after 48 hrs by resazurin dye-based fluorescence assay; format: cell-based; conditions: Homo sapiens
PANC-1 [25] = experiment: Effect on CASP1 gene expression in human PANC1 cells at IC50 after 48 hrs by microarray analysis; format: functional, cell-based
HepG2 [26] = experiment: Effect on TOP2A gene expression in human HepG2 cells at IC50 after 48 hrs by microarray analysis relative to control; format: functional
HepG2 [27] = experiment: Effect on GST A2 gene expression in human HepG2 cells at IC50 after 48 hrs by microarray analysis; format: functional, cell-based
hTERT-BJ [28] = experiment: Cytotoxicity against hTERT-BJ cells at 6.25 uM after 48 hrs by resazurin dye-based fluorescence assay relative to control; format: cell-based; conditions: human
PANC-1 [29] = experiment: Effect on PCNA gene expression in human PANC1 cells at IC50 after 48 hrs by microarray analysis; format: functional, cell-based
TERT-RPE1 [30] = experiment: Cytotoxicity against hTERT-RPE1 cells after 48 hrs by resazurin dye-based fluorescence assay; format: cell-based; conditions: Homo sapiens, RPE-1, 48 h
PANC-1 [31] = experiment: Effect on TBC1D26 gene expression in human PANC1 cells at IC50 after 48 hrs by microarray analysis; format: functional, cell-based
HepG2 [32] = experiment: Effect on ARK1B15 gene expression in human HepG2 cells at IC50 after 48 hrs by microarray analysis; format: functional, cell-based
CCRF-CEM = experiment: Antiproliferative activity against human CCRF-CEM cells after 48 hrs by resazurin dye-based fluorescence assay; format: functional, cell-based
HepG2 [33] = experiment: Effect on TOP3A gene expression in human HepG2 cells at IC50 after 48 hrs by microarray analysis; format: functional, cell-based
HepG2 [34] = experiment: Effect on CYP1A1 gene expression in human HepG2 cells at IC50 after 48 hrs by microarray analysis; format: ADME, cell-based; conditions: hepg2, 48 h
PANC-1 [35] = experiment: Effect on CAMK2N1 gene expression in human PANC1 cells at IC50 after 48 hrs by microarray analysis; format: functional, cell-based
PANC-1 [36] = experiment: Effect on ZNF148 gene expression in human PANC1 cells at IC50 after 48 hrs by microarray analysis; format: functional, cell-based
[37] = Selectivity index, ratio of IC50 for hTERT-BJ cells to IC50 for human PANC1 cells; format: toxicity; conditions: hTERT-BJ cells versus PANC1 cells, read-out: Ratio IC50
[38] = Selectivity index, ratio of IC50 for hTERT-RPE1 cells to IC50 for human PANC1 cells; format: toxicity; conditions: hTERT-RPE1 cells versus PANC1 cells, read-out: Ratio IC50
PANC-1 [39] = experiment: Effect on THOC2 gene expression in human PANC1 cells at IC50 after 48 hrs by microarray analysis; format: functional, cell-based
HepG2 [40] = experiment: Effect on TOP2A gene expression in human HepG2 cells at IC50 after 48 hrs by microarray analysis; format: functional, cell-based
HepG2 [41] = experiment: Effect on MYO 10 gene expression in human HepG2 cells at IC50 after 48 hrs by microarray analysis; format: functional, cell-based
[42] = Selectivity index, ratio of IC50 for hTERT-BJ cells to IC50 for human CCRF-CEM cells; format: toxicity; conditions: hTERT-BJ cells versus CCRF-CEM cells, read-out: Ratio IC50
HepG2 [43] = experiment: Effect on WDR26 gene expression in human HepG2 cells at IC50 after 48 hrs by microarray analysis; format: functional, cell-based
TERT-RPE1 [44] = experiment: Cytotoxicity against hTERT-RPE1 cells at 50 uM after 48 hrs by resazurin dye-based fluorescence assay relative to control; format: cell-based; conditions: human, tert-rpe1, 48 h

inhibition (INH) (Cytochrome P450 3A4): Dose-dependent effect
IC50 (HepG2 [17]): 9.42 µM
Activity (PANC-1 [18]): Active
IC50 (CCRF-CEM): 7.45 µM
Activity (HepG2 [34]): Active
SMILES: O=C(N/N=C/c1cc2ccccc2nc1Cl)c1cc2cc(Br)ccc2oc1=O
Activity (PANC-1 [1]): Active
Activity (HepG2 [2]): Active
Activity (HepG2 [3]): Active
Activity (HepG2 [4]): Active
Activity (PANC-1 [5]): Active
fold change (FC) (HepG2 [6]): 4.56
Activity (HepG2 [7]): Active
Activity (PANC-1 [8]): Active
Activity (PANC-1 [9]): Active
Activity (PANC-1 [10]): Active
Activity (HepG2 [11]): Active
fold change (FC) (HepG2 [12]): 3.18
Activity (PANC-1 [13]): Active
Activity (TERT-RPE1 [14]): 12.73%
Activity (PANC-1 [15]): Active
Activity (PANC-1 [16]): Active
Activity (PANC-1 [19]): Active
fold change (FC) (HepG2 [20]): 3.52
Activity (PANC-1 [21]): Active
Activity (HepG2 [22]): Active
Activity (PANC-1 [23]): Active
IC50 (hTERT-BJ [24]): > 50 µM
Activity (PANC-1 [25]): Active
fold change (FC) (HepG2 [26]): -3.57
Activity (HepG2 [27]): Active
Activity (hTERT-BJ [28]): 1.98%
Activity (PANC-1 [29]): Active
IC50 (TERT-RPE1 [30]): > 50 µM
Activity (PANC-1 [31]): Active
Activity (HepG2 [32]): Active
Activity (HepG2 [33]): Active
Activity (PANC-1 [35]): Active
Activity (PANC-1 [36]): Active
selectivity ratio [37]: > 9.18
selectivity ratio [38]: > 9.18
Activity (PANC-1 [39]): Active
Activity (HepG2 [40]): Active
Activity (HepG2 [41]): Active
selectivity ratio [42]: > 6.71
Activity (HepG2 [43]): Active
Activity (TERT-RPE1 [44]): 20.18%
